Values quoted from earlier work, collected in patent US20050176010A1, “Regulation of human transient receptor potential channel” (Bayer HealthCare AG, priority 2002, published 2005).

Legend:
[1] = molecular target: cold- and menthol-sensitive receptor (CMR1) (Rattus norvegicus, UniProt Q8R455); details: McKemy et al., Nature 2002
mouse TRPM8 = mouse TRPM8 (Mus musculus, UniProt Q8R4D5); details: Peier et al., Cell 2002
cold receptors [2] = details: animals; Lindstrom and Mazieres 1991, Mazieres et al. 1998
cold receptors [3] = details: all tested patients; Geirsson, J. Urol. 1993

Chain of mouse TRPM8 (Q8R4D5 whole entry): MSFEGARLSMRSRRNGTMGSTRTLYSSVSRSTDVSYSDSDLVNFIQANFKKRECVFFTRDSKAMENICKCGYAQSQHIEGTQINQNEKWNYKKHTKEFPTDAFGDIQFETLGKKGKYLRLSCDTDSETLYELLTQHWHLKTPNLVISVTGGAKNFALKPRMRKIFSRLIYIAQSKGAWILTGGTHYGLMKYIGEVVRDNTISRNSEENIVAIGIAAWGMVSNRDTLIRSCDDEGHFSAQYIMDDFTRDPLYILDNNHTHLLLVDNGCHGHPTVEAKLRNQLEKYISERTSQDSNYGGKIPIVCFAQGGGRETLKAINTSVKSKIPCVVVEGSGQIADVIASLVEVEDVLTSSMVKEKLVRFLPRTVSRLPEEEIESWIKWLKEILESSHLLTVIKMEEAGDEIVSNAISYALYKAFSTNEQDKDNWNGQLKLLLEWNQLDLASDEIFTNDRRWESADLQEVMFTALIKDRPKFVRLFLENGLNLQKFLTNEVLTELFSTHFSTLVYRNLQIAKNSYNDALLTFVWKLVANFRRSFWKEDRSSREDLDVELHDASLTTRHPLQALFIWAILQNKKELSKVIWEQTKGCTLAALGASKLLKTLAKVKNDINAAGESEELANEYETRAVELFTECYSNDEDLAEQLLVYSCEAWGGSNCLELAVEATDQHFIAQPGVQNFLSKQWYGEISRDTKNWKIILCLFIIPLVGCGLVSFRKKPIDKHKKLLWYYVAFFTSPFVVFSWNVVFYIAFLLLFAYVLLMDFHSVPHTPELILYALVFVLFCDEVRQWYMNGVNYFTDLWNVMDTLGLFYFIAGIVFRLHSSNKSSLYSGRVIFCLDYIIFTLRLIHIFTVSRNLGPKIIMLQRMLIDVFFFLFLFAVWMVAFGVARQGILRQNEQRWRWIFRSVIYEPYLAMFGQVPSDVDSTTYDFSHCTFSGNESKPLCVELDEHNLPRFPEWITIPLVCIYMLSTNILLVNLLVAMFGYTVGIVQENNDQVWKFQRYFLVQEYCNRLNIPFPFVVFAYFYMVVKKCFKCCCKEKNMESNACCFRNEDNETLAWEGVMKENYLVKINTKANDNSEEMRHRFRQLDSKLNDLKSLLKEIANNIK
Chain of cold- and menthol-sensitive receptor (CMR1) (Q8R455 whole entry): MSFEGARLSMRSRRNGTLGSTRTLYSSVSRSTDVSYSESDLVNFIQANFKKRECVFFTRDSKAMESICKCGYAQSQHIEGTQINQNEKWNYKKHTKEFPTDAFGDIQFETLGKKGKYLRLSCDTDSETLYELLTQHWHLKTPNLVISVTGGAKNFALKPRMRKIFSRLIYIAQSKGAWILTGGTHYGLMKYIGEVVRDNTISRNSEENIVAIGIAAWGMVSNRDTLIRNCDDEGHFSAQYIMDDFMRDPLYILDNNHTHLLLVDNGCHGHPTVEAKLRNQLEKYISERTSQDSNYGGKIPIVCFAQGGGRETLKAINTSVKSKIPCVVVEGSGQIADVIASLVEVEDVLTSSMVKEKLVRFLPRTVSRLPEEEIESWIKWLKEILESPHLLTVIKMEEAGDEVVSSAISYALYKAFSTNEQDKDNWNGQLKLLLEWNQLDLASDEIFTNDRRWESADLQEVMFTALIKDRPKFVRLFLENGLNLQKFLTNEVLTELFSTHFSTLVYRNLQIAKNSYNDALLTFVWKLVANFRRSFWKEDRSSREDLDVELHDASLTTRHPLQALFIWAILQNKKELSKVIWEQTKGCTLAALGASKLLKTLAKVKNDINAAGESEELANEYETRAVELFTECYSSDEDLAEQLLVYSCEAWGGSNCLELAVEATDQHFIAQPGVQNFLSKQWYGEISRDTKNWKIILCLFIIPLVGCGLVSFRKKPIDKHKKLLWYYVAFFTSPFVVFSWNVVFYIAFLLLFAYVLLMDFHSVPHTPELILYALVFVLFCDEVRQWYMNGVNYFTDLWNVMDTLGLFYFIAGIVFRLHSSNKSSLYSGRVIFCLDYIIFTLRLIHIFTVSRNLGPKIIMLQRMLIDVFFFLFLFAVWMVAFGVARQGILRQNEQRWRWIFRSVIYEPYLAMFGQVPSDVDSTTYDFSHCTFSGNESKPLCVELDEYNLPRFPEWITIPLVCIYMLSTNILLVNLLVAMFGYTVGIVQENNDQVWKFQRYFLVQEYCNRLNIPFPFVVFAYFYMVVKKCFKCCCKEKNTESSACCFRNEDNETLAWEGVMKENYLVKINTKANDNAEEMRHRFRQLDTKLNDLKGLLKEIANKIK

SMILES: CC1CCC(C(C)C)C(O)C1 (stereo not shown) [menthol]
- activation of the channel receptor CMR1 [1]: activated
- gating of the ion channel (mouse TRPM8): gated by cold stimuli and menthol
- temperature response curve of the bladder cooling reflex (cold receptors [2]): shifts the temperature response curve of the bladder cooling reflex towards higher temperatures
- threshold temperature of the cooling reflex (cold receptors [3]): shift of the threshold temperature of the cooling reflex towards a higher value
